This is an account of results in patent EP4818172A1, “ASCORBIC ACID DERIVATIVES AND COSMETIC CONTAINING SAME” (Seiwa Kasei Co., Ltd., priority 2023, dated 2025).

Series [1] in a line: Stability test -2: odor and coloration of cream stored at 50°C. The settings on record: Test Example 2, cream stored at 50°C, total score of 10 panelists. The series is classed as physicochemical. The procedure:
For each of the samples of Synthesis Examples 1 to 6, 1% aqueous solutions were adjusted to pH 3, 5, 7, 8, and 9 with a dilute potassium hydroxide aqueous solution, and then placed in 50 mL screw tubes and • 2: Color changes compared to immediately after preparation. • 1: Strongly colored compared to immediately after preparation. Based on the results of the above evaluation, the following classification was made: • ○: Total score of 10 panelists is 25 or more • △: Total score of 10 panelists is 16-24 • ×: The total score of 10 panelists is 15 or less [Table 10]
(§1) For each of the samples of Synthesis Examples 9 to 32, (a) and (b) shown in Table 12 were each heated and mixed. After cooling, (c) shown in Table 12 was added to prepare a cream with a pH of 7 or 9. The sample was stored at 50°C for 4 weeks, and the residual rate was determined in the same manner as in Test Example 1 and evaluated according to the criteria described below. The odor and coloration were also evaluated according to the same method and criteria as in Test Example 1. The results regarding the residual rate are shown in Tables 13 and 14, and the results regarding the odor and coloration are shown in Tables 15 and 16.

The nature of series [2]: Stability test -2: residual rate in cream of pH 7 or 9 stored at 50°C. The settings on record: cream with 4.0 W/W% derivative. The series is classed as physicochemical. The procedure:
as §1
• ⊚: 95% or more • ○: 85% or more, less than 95% • ×: Less than 85% [Table 12]

Series [3] deals with Normal human dermal fibroblasts (NHDF). As to the kind of experiment: Hyaluronic acid production promoting effect (ELISA of supernatant). The series is classed as cell-based. The settings on record: sample at 10 mM or less in serum-free D-MEM, cultured 48 hours, % of control group (100%), N=3. The procedure:
Normal human dermal fibroblasts (NHDF) were prepared in D-MEM containing 5% (v/v) fetal bovine serum to a cell density of 2.5 × 10^4 cells/well, and then pre-incubated on a 96-well plate for 24 hours. After removing the medium, samples prepared in serum-free D-MEM were added to each well and cultured for 48 hours. After the culture was completed, the amount of hyaluronic acid in the supernatant was quantified by ELISA. Measurements were performed in triplicate (N=3).
The amount of hyaluronic acid produced when the sample was measured at a concentration of 10 mM or less was compared with that of the control group, and the results (% values when the control group is set to 100%) are shown in Tables 18 to 20 based on the following criteria. • <100%: ± • 100-120%: + • 120%<: ++ [Table 18]

`CCCCCCCC(=O)OCC(O)C1OC(=O)C2=C1OCCCCO2` (centres unmarked) [synthesis example 11, 6-O-octanoyl-2,3-O-(1,4-butanediyl) ascorbic acid]: in series [1], the “Coloration After 2 weeks” value is “○ (Total score of 10 panelists is 25 or more)”, the “Odor After 2 weeks” value is “○ (Total score of 10 panelists is 25 or more)”, the “Coloration After 4 weeks” value is given as “○ (Total score of 10 panelists is 25 or more)” and the “Odor After 4 weeks” value is listed as “Δ”. In series [2] (pH7, stored at 50°C), the “Residual Rate After 2 weeks” value is on record as “⊚ (95% or more)” and the “Residual Rate After 4 weeks” value is “⊚ (95% or more)”. Also, in series [2] (pH9, stored at 50°C), the “Residual Rate After 2 weeks” value was “⊚ (95% or more)” and the “Residual Rate After 4 weeks” value was “○ (85% or more, less than 95%)”. For the same compound, the “Hyaluronic acid production-promoting effect” value in series [3] is recorded as “++ (120%<)”.

For `CC(C)CCCCCCCCCCCCCCC(=O)OCC(O)C1OC(=O)C2=C1OCCO2` (centres unmarked) [synthesis example 31, 6-O-isostearoyl-2,3-O-(1,2-ethanediyl) ascorbic acid], in series [1], the “Coloration After 2 weeks” value was “○ (Total score of 10 panelists is 25 or more)”, the “Odor After 2 weeks” value was “○ (Total score of 10 panelists is 25 or more)”, the “Coloration After 4 weeks” value was “○ (Total score of 10 panelists is 25 or more)” and the “Odor After 4 weeks” value is on record as “Δ”. Further, in series [2] (pH7, stored at 50°C), the “Residual Rate After 2 weeks” value is “⊚ (95% or more)” and the “Residual Rate After 4 weeks” value is on record as “⊚ (95% or more)”. In series [2] (pH9, stored at 50°C), the “Residual Rate After 2 weeks” value is reported as “⊚ (95% or more)” and the “Residual Rate After 4 weeks” value was “⊚ (95% or more)”. Besides, the “Hyaluronic acid production-promoting effect” value in series [3] was “++ (120%<)”.

As for `O=C1OC(C(O)COCc2ccccc2)C2=C1OCCCCO2` (centres unmarked) [synthetic example 39, 6-O-benzyl-2,3-O-(1,4-butanediyl) ascorbic acid], in series [3], the “Hyaluronic acid production-promoting effect” value is on record as “+ (100-120%)”.

For the compound `CC(C)CCCCCCCCCCCCCCC(=O)OC[C@H](OC(=O)CCCCCCCCCCCCCCC(C)C)[C@H]1OC(=O)C2=C1OCCCCO2` [synthesis example 18, 5,6-O-diisostearoyl-2,3-O-(1,4-butanediyl) ascorbic acid], in series [1], the “Coloration After 2 weeks” value is on record as “○ (Total score of 10 panelists is 25 or more)”, the “Odor After 2 weeks” value was “○ (Total score of 10 panelists is 25 or more)”, the “Coloration After 4 weeks” value is on record as “○ (Total score of 10 panelists is 25 or more)” and the “Odor After 4 weeks” value is given as “Δ”. Further, in series [2] (pH7, stored at 50°C), the “Residual Rate After 2 weeks” value is “⊚ (95% or more)” and the “Residual Rate After 4 weeks” value is “⊚ (95% or more)”. In addition, in series [2] (pH9, stored at 50°C), the “Residual Rate After 2 weeks” value is recorded as “⊚ (95% or more)” and the “Residual Rate After 4 weeks” value is “⊚ (95% or more)”. In addition, the “Hyaluronic acid production-promoting effect” value in series [3] is listed as “++ (120%<)”.

Turning to `CCCCCCCCCCCCCCCC(=O)OC[C@H](O)[C@H]1OC(=O)C(OP(=O)(O)O)=C1O` [Ascorbyl phosphate 3Na palmitate, reference compound], the “Hyaluronic acid production-promoting effect” value in series [3] is on record as “± (<100%)”.

Turning to `CCCCCCCCCCCC(=O)OCC(OC(=O)CCCCCCCCCCC)C1OC(=O)C2=C1OCCCO2` (centres unmarked) [synthesis example 25, 5,6-O-dilauroyl-2,3-O-(1,3-propanediyl) ascorbic acid], in series [1], the “Coloration After 2 weeks” value is “○ (Total score of 10 panelists is 25 or more)”, the “Odor After 2 weeks” value is “○ (Total score of 10 panelists is 25 or more)”, the “Coloration After 4 weeks” value is “Δ” and the “Odor After 4 weeks” value is “Δ”. In addition, in series [2] (pH7, stored at 50°C), the “Residual Rate After 2 weeks” value is “⊚ (95% or more)” and the “Residual Rate After 4 weeks” value is on record as “⊚ (95% or more)”. In series [2] (pH9, stored at 50°C), the “Residual Rate After 2 weeks” value is “⊚ (95% or more)” and the “Residual Rate After 4 weeks” value is “⊚ (95% or more)”. Moreover, the “Hyaluronic acid production-promoting effect” value in series [3] is listed as “++ (120%<)”.

On to `CC1(C)OCC(C2OC(=O)C3=C2OCCCCO3)O1` (centres unmarked) [synthesis example 35, 5,6-O-isopropylidene-2,3-O-(1,4-butanediyl) ascorbic acid], for which, in series [3], the “Hyaluronic acid production-promoting effect” value is on record as “++ (120%<)”.

As to `CC1(C)COC2=C(O1)C(=O)OC2C(O)CO` (centres unmarked) [synthetic example 8, 2,3-O-(1,1-dimethyl-1,2-ethanediyl) ascorbic acid], in series [3], the “Hyaluronic acid production-promoting effect” value is listed as “+ (100-120%)”.

In the case of `CCCCCCCCCCCCCCCC(=O)OCC(O)C1OC(=O)C2=C1OCCCO2` (centres unmarked) [synthesis example 26, 6-O-palmitoyl-2,3-O-(1,3-propanediyl) ascorbic acid], in series [1], the “Coloration After 2 weeks” value was “○ (Total score of 10 panelists is 25 or more)”, the “Odor After 2 weeks” value is listed as “○ (Total score of 10 panelists is 25 or more)”, the “Coloration After 4 weeks” value was “Δ” and the “Odor After 4 weeks” value is reported as “Δ”. For the same compound, in series [2] (pH7, stored at 50°C), the “Residual Rate After 2 weeks” value is recorded as “⊚ (95% or more)” and the “Residual Rate After 4 weeks” value was “⊚ (95% or more)”. Besides, in series [2] (pH9, stored at 50°C), the “Residual Rate After 2 weeks” value is “⊚ (95% or more)” and the “Residual Rate After 4 weeks” value is “○ (85% or more, less than 95%)”. Moreover, in series [3], the “Hyaluronic acid production-promoting effect” value is “++ (120%<)”.

As for `CCCCCCCCC(CCCCCC)C(=O)OC[C@H](OC(=O)C(CCCCCC)CCCCCCCC)[C@H]1OC(=O)C(OC(=O)C(CCCCCC)CCCCCCCC)=C1OC(=O)C(CCCCCC)CCCCCCCC` (some centres unmarked) [Ascorbyl tetrahexyldecanoate, reference compound], in series [1], the “Coloration After 2 weeks” value is recorded as “○ (Total score of 10 panelists is 25 or more)”, the “Odor After 2 weeks” value is reported as “○ (Total score of 10 panelists is 25 or more)”, the “Coloration After 4 weeks” value is reported as “Δ” and the “Odor After 4 weeks” value was “Δ”. In series [2] (pH7, stored at 50°C), the “Residual Rate After 2 weeks” value was “○ (85% or more, less than 95%)” and the “Residual Rate After 4 weeks” value was “× (Less than 85%)”. In series [2] (pH9, stored at 50°C), the “Residual Rate After 2 weeks” value is listed as “○ (85% or more, less than 95%)” and the “Residual Rate After 4 weeks” value was “× (Less than 85%)”.

On to `CC1(C)OCC(C2OC(=O)C3=C2OCCCO3)O1` (centres unmarked) [synthesis example 36, 5,6-O-isopropylidene-2,3-O-(1,3-propanediyl) ascorbic acid], for which the “Hyaluronic acid production-promoting effect” value in series [3] is “++ (120%<)”.

As for `O=C1OC(C2COC(c3ccccc3)O2)C2=C1OCCCCO2` (centres unmarked) [synthesis example 37, 5,6-O-(phenylmethylene)-2,3-O-(1,4-butanediyl) ascorbic acid], the “Hyaluronic acid production-promoting effect” value in series [3] is given as “+ (100-120%)”.

With `O=C1OC(C2COC(c3ccccc3)O2)C2=C1OCCCO2` (centres unmarked) [synthesis example 38, 5,6-O-(phenylmethylene)-2,3-O-(1,3-propanediyl) ascorbic acid], the “Hyaluronic acid production-promoting effect” value in series [3] is reported as “++ (120%<)”.

In the case of `CC1(C)COC2=C(O1)C(C(O)CO)OC2=O` (centres unmarked) [synthesis example 7, 2,3-O-(2,2-dimethyl-1,2-ethanediyl) ascorbic acid], in series [3], the “Hyaluronic acid production-promoting effect” value is “+ (100-120%)”.

Turning to `CCCCCCCCCCCCCCCC(=O)OCC(OC(=O)CCC)C1OC(=O)C2=C1OCCCO2` (centres unmarked) [Synthesis Example 30, 5-O-butanoyl-6-O-palmitoyl-2,3-O-(1,3-propanediyl) ascorbic acid], in series [1], the “Coloration After 2 weeks” value is on record as “○ (Total score of 10 panelists is 25 or more)”, the “Odor After 2 weeks” value is “○ (Total score of 10 panelists is 25 or more)”, the “Coloration After 4 weeks” value is on record as “○ (Total score of 10 panelists is 25 or more)” and the “Odor After 4 weeks” value is “Δ”. In series [2] (pH7, stored at 50°C), the “Residual Rate After 2 weeks” value is given as “⊚ (95% or more)” and the “Residual Rate After 4 weeks” value was “⊚ (95% or more)”. In series [2] (pH9, stored at 50°C), the “Residual Rate After 2 weeks” value is “⊚ (95% or more)” and the “Residual Rate After 4 weeks” value was “⊚ (95% or more)”.

In the case of `CCCCCCCC(=O)OCC(OC(=O)CCC)C1OC(=O)C2=C1OCCCCO2` (centres unmarked) [synthetic example 19, 5-O-butanoyl-6-O-octanoyl-2,3-O-(1,4-butanediyl) ascorbic acid], in series [1], the “Coloration After 2 weeks” value is reported as “○ (Total score of 10 panelists is 25 or more)”, the “Odor After 2 weeks” value is listed as “○ (Total score of 10 panelists is 25 or more)”, the “Coloration After 4 weeks” value is “○ (Total score of 10 panelists is 25 or more)” and the “Odor After 4 weeks” value is “Δ”. In series [2] (pH7, stored at 50°C), the “Residual Rate After 2 weeks” value is given as “⊚ (95% or more)” and the “Residual Rate After 4 weeks” value is given as “⊚ (95% or more)”. In series [2] (pH9, stored at 50°C), the “Residual Rate After 2 weeks” value is listed as “⊚ (95% or more)” and the “Residual Rate After 4 weeks” value is recorded as “⊚ (95% or more)”.
